This series can be described thus: Physical stability of the polymorphic form on repeated preparation. Type of series: physicochemical. To be noted: successive preparations of Form IV turned out as mixtures of Form IV and Form III. As for the experimental part:
The form was prepared by suspending a freshly prepared Form II in water free ethanol. Separation of the suspended matter was conducted after 24 hours and subsequent drying under vacuum.
Form IV can also be obtained from suspension of Form III by the same procedure as described using Form II.
Successive preparations of Form IV turned out as mixtures of Form IV and Form III, indicating difficulties in producing Form IV

Turning to `COC[C@@H]1[C@@H](c2ccc(Cl)c(Cl)c2)C[C@@H]2CC[C@H]1N2.O=C(O)C(O)C(O)C(=O)O` [Form IV, (1R,2R,3S,5S)-2-methoxymethyl-3-(3,4-dichlorophenyl)-8-azabicyclo[3.2.1]octane L-tartrate anhydrate (Form IV)], the “physical stability of the crystal form” value was “physically metastable”.

The values above are taken from US7700619B2, “2-methoxymethyl-3-(3,4-dichlorophenyl)-8-azabicyclo[3.2.1]octane tartrate salts” (Neurosearch A/S, priority 2003, dated 2010).
